These results are taken from ChEMBL document CHEMBL1201862, “PubChem BioAssay data set” (2004).

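1) Cells in 96-well plates. 2) Compound, 48 h, 5 concentrations. 3) Linear interpolation between surrounding doses. 4) Unreached endpoint = highest concentration. GI50: concentration for 50% inhibition of growth.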 Active and inactive are the calls of the source. No stated cut-off is given here; in the data, active = GI50 up to about 1.1 µM and inactive = higher.

Some test systems named below: HCT-116; SF-268; Malme-3M; HCT-15; A498; HOP-92; PC-3; SK-MEL-2; NCI-H460; OVCAR-8; MCF7; Hs-578T; TK-10; SK-OV-3; T47D; OVCAR-5; RXF 393; CCRF-CEM; MOLT-4; UO-31.
What all share (experiment): growth of human tumour cells (NCI), 48 h

For the compound `Oc1[nH]c(Nc2ccc(Cl)cc2)nc2ncnc1-2`, the GI50 is 84.3 µM (inactive) with HCT-116; 55 µM (inactive) with SF-268; > 100 µM (inactive) with Malme-3M; above 100 µM with HCT-15; > 100 µM (inactive) in the assay on A498; 81.3 µM (inactive) with HOP-92. The GI50 was > 100 µM (inactive) in the assay with PC-3; > 100 µM (inactive) in the assay with SK-MEL-2; > 100 µM (inactive) in the assay on NCI-H460; > 100 µM (inactive) in the assay with OVCAR-8; > 100 µM (inactive) with MCF7; 23.3 µM (inactive) with Hs-578T. In addition, the GI50 in the assay on TK-10 is > 100 µM (inactive); in the assay with SK-OV-3, > 100 µM (inactive); in the assay on T47D, 61.7 µM (inactive); with OVCAR-5, > 100 µM (inactive).
As for `CSCCC(NC(=O)C(Cc1c[nH]c2ccccc12)NC(=O)CCNC(=O)OC(C)(C)C)C(=O)NC(CC(=O)O)C(=O)NC(Cc1ccccc1)C(N)=O` (centres undefined), the GI50 with HCT-116, with SF-268, in the assay with A498, in the assay on HOP-92, with PC-3 and in the assay on SK-MEL-2 was > 50 µM (inactive) throughout. The GI50 with RXF 393, in the assay on MCF7, with Hs-578T, with TK-10, with CCRF-CEM and in the assay on SK-OV-3 was > 50 µM (inactive) in each case. For the same compound, the GI50 in the assay with MOLT-4, in the assay with T47D and with OVCAR-5 was > 50 µM (inactive) each time.
For `O=Cc1c(-c2ccccc2)nc2ccccc2c1O`, the GI50 is 41.9 µM (inactive) in the assay with HCT-116; 59.3 µM (inactive) with SF-268; 54 µM (inactive) with Malme-3M; 65.2 µM in the assay on HCT-15; 81.8 µM (inactive) with A498; > 100 µM (inactive) with HOP-92. The GI50 with PC-3 was 36.5 µM (inactive); in the assay on SK-MEL-2 it was > 100 µM (inactive); in the assay with NCI-H460, 48.2 µM (inactive); in the assay on OVCAR-8 it was 97.5 µM (inactive); in the assay on MCF7, 39.3 µM (inactive); in the assay on Hs-578T, 30.1 µM (inactive). The GI50 with TK-10 is > 100 µM (inactive); with SK-OV-3, > 100 µM (inactive); in the assay on UO-31 it was 85.7 µM (inactive); in the assay with MOLT-4, 55.7 µM (inactive); in the assay with T47D, 64.6 µM (inactive); with OVCAR-5, > 100 µM (inactive).
Consider `C=C([C@@]1(O)C[C@H]2[C@H](CCC2(OC)OC)[C@@H]2c3ccccc3O[C@@H]21)[Si](C)(C)C`, for which the GI50 in the assay on HCT-116 was > 100 µM (inactive); in the assay on SF-268, > 100 µM (inactive); with HCT-15, above 100 µM; in the assay on A498 it was > 100 µM (inactive); with HOP-92, 1.78 µM (inactive); in the assay with PC-3, > 100 µM (inactive). The GI50 with SK-MEL-2 is > 100 µM (inactive); in the assay with NCI-H460 it was > 100 µM (inactive); in the assay with OVCAR-8, > 100 µM (inactive); in the assay with MCF7, 93.1 µM (inactive); in the assay with Hs-578T it was > 100 µM (inactive); in the assay with TK-10 it was > 100 µM (inactive). The GI50 is > 100 µM (inactive) in the assay with SK-OV-3; 76.7 µM (inactive) with UO-31; > 100 µM (inactive) with MOLT-4; 69.8 µM (inactive) in the assay with T47D; > 100 µM (inactive) with OVCAR-5.
As for `CN[C@H]1CC[C@]23C[C@]24CC[C@]2(C)[C@@H]([C@H](C)N(C)C)CC[C@@]2(C)[C@@H]4CC[C@H]3C1(C)C`, the GI50 with HCT-116 was 11.4 µM (inactive); with SF-268, 14.4 µM (inactive); with Malme-3M, 17.1 µM (inactive); in the assay on HCT-15, 10.7 µM; with A498, 20.6 µM (inactive); in the assay with HOP-92 it was 10.9 µM (inactive). Further, the GI50 is 9.08 µM (inactive) in the assay with PC-3; 18 µM (inactive) in the assay on SK-MEL-2; 18.2 µM (inactive) with NCI-H460; 17.3 µM (inactive) in the assay on OVCAR-8; 15.6 µM (inactive) in the assay on MCF7; 16.8 µM (inactive) in the assay with Hs-578T. For the same compound, the GI50 in the assay with TK-10 was 18.3 µM (inactive); in the assay on CCRF-CEM, 15.1 µM (inactive); in the assay on SK-OV-3 it was 19.1 µM (inactive); with UO-31, 11.9 µM (inactive); in the assay on MOLT-4, 16.5 µM (inactive); in the assay with T47D, 14.6 µM (inactive). Besides, in the assay with OVCAR-5, the GI50 was 21 µM (inactive).
Regarding `CC(=O)Oc1c(OC(C)C)c(C)c(O[Si](C(C)C)(C(C)C)C(C)C)c2[nH]c3ccccc3c12`, the GI50 in the assay on HCT-116 was 63.4 µM (inactive); with SF-268 it was > 100 µM (inactive); in the assay on HCT-15, above 75.7 µM; in the assay on HOP-92, > 100 µM (inactive); in the assay with PC-3 it was 37.7 µM (inactive); with SK-MEL-2, > 100 µM (inactive). In addition, the GI50 is > 100 µM (inactive) in the assay on NCI-H460; 20.2 µM (inactive) in the assay with RXF 393; > 100 µM (inactive) in the assay with OVCAR-8; 56.6 µM (inactive) in the assay with MCF7; > 100 µM (inactive) with Hs-578T; > 100 µM (inactive) in the assay on TK-10. In addition, the GI50 is 60.1 µM (inactive) in the assay on CCRF-CEM; > 100 µM (inactive) in the assay with SK-OV-3; > 100 µM (inactive) in the assay on UO-31; 12 µM (inactive) in the assay on MOLT-4; 44.4 µM (inactive) in the assay on T47D; > 100 µM (inactive) in the assay on OVCAR-5.
Consider `NC1(CCNC(=O)c2ccccc2)CCN(C(=O)c2ccccc2)CC1`, for which the GI50 in the assay with HCT-116 is > 100 µM (inactive); in the assay with SF-268, > 100 µM (inactive); with Malme-3M, 29.2 µM (inactive); in the assay on HCT-15, above 100 µM; with HOP-92 it was 50.7 µM (inactive); with PC-3, > 100 µM (inactive). In addition, the GI50 in the assay with SK-MEL-2 is 34.4 µM (inactive); with NCI-H460, > 100 µM (inactive); in the assay on RXF 393, > 100 µM (inactive); with OVCAR-8 it was > 100 µM (inactive); with MCF7 it was > 100 µM (inactive); with Hs-578T, > 100 µM (inactive). The GI50 in the assay on TK-10, in the assay on CCRF-CEM, in the assay with SK-OV-3, in the assay with UO-31, with MOLT-4 and in the assay with T47D was > 100 µM (inactive) throughout. Also, in the assay with OVCAR-5, the GI50 was > 100 µM (inactive).
Take `N#Cc1nc(C2CC2)oc1N`: the GI50 in the assay with HCT-116 is > 100 µM (inactive); in the assay on SF-268, > 100 µM (inactive); in the assay on Malme-3M, 94.4 µM (inactive); in the assay with HCT-15 it was above 100 µM; in the assay with HOP-92, > 100 µM (inactive); with PC-3, > 100 µM (inactive). The GI50 in the assay on SK-MEL-2, with RXF 393, in the assay on OVCAR-8, in the assay on MCF7, with Hs-578T and with TK-10 was > 100 µM (inactive) each time. For the same compound, the GI50 is 38.4 µM (inactive) with CCRF-CEM; > 100 µM (inactive) in the assay on SK-OV-3; > 100 µM (inactive) with MOLT-4; > 100 µM (inactive) with T47D; > 100 µM (inactive) in the assay on OVCAR-5.
Consider `O=c1c(Br)c(-c2ccccc2)[s+]([O-])c2ccccc12` (centres undefined), for which the GI50 in the assay on HCT-116 was 5.9 µM (inactive); in the assay on SF-268, 16.4 µM (inactive); in the assay with Malme-3M it was 10.4 µM (inactive); in the assay with HCT-15, 3.32 µM; in the assay with HOP-92, 10.5 µM (inactive); in the assay with PC-3 it was 7.78 µM (inactive). Also, the GI50 in the assay on SK-MEL-2 was 18.4 µM (inactive); in the assay on NCI-H460 it was 17.9 µM (inactive); in the assay with RXF 393 it was 12.2 µM (inactive); in the assay with OVCAR-8 it was 4.6 µM (inactive); in the assay with MCF7, 2.96 µM (inactive); in the assay with Hs-578T, 25.1 µM (inactive). Further, the GI50 in the assay with TK-10 is 18.2 µM (inactive); with CCRF-CEM, 0.861 µM (active); with SK-OV-3, 17.7 µM (inactive); with UO-31, 12 µM (inactive); with MOLT-4 it was 1.22 µM (inactive); in the assay with T47D, 2.8 µM (inactive). Moreover, the GI50 with OVCAR-5 is 21.5 µM (inactive).
As to `Cc1nc(Nc2ccccc2Cl)sc1C(=O)CC(=O)C(N)=O`, the GI50 in the assay with HCT-116 was 10.9 µM (inactive); with SF-268, > 100 µM (inactive); in the assay on HCT-15 it was 33.7 µM; in the assay on A498, 19.7 µM (inactive); in the assay on HOP-92, 7.98 µM (inactive); in the assay on PC-3 it was 19.7 µM (inactive). Further, the GI50 in the assay on SK-MEL-2 was 35.1 µM (inactive); in the assay with NCI-H460, 32.6 µM (inactive); in the assay on RXF 393, 48.8 µM (inactive); in the assay on OVCAR-8, 54.7 µM (inactive); with MCF7 it was 29.3 µM (inactive); in the assay with Hs-578T, 59.2 µM (inactive). The GI50 in the assay on TK-10 was > 100 µM (inactive); in the assay on CCRF-CEM, 32.6 µM (inactive); with SK-OV-3, 44.9 µM (inactive); with UO-31 it was 21.7 µM (inactive); in the assay on MOLT-4 it was 26.4 µM (inactive); in the assay on T47D, > 100 µM (inactive). Besides, in the assay with OVCAR-5, the GI50 is > 100 µM (inactive).
`Cc1ccc2cc3c(ccc4ccccc43)c3c2c1CC3` [3-METHYLCHOLANTHRENE]: the GI50 is > 100 µM (inactive) in the assay on HCT-116; > 100 µM (inactive) with SF-268; 9.82 µM in the assay on HCT-15; > 100 µM (inactive) with HOP-92; > 100 µM (inactive) in the assay on PC-3; > 100 µM (inactive) with SK-MEL-2. In addition, the GI50 is > 100 µM (inactive) in the assay on NCI-H460; > 100 µM (inactive) with RXF 393; > 100 µM (inactive) with OVCAR-8; 0.159 µM (active) in the assay with MCF7; 83.9 µM (inactive) in the assay on Hs-578T; > 100 µM (inactive) with TK-10. The GI50 in the assay with CCRF-CEM, in the assay with SK-OV-3, with UO-31, in the assay on MOLT-4 and in the assay with T47D was > 100 µM (inactive) in each case.
